# Source: patent US8450441B2, “Synthetic N-linked sialo-glycan-containing polymer and method for producing the same” (priority 2007, dated 2013)
# Experiments:
# A/Aichi/2/68 (H3N2) = format: cell-based, Influenza A virus (Human strain); conditions: for IC50: read-out: HI activity IC50
# [1] = system: A/Duck/HK/313/4/78 (H5N3); format: cell-based, Influenza A virus (Avian strain); conditions: read-out: HI activity IC50
Substance,IC50 (A/Aichi/2/68 (H3N2)) [µM],IC50 [1] [µM],inhibition activity of human influenza virus infection compared with conventional O-linked sialo-glycan-containing polymer (A/Aichi/2/68 (H3N2)),inhibition activity of human influenza virus infection compared with Poly[Neu5Ac α2-6-LacNAc β-N-(ε-aminocaproyl/γ-PGA] (A/Aichi/2/68 (H3N2))
Poly[N-(ε-aminocaproyl)-β-lactosylamine/-γ-PGA]],> 0.2,> 0.2,–,–
Poly[Neu5Ac α2-6lactosylamine β-N-(ε-aminocaproyl)/γ-PGA],0.0047,> 0.2,–,–
Poly[N-(ε-aminocaproyl)-β-lacto-N-neotetraosylamine/-γ-PGA]],> 0.2,> 0.2,–,–
Poly[Neu5Ac α2-3lacto-N-neotetraosylamine β-N-(ε-aminocaproyl)/γ-PGA],0.0188,0.0375,–,–
Poly[Neu5Ac α2-3-N-acetyllactosaminylamine β-N-(ε-aminocaproyl)/γ-PGA],0.0375,0.0375,–,–
Poly[Neu5Ac α2-6-N-acetyllactosaminylamine β-N-(ε-aminocaproyl)/γ-PGA],0.0012,> 0.2,many times greater,–
Poly[Neu5Ac α2-6-lacto-N-neotetraosylamine β-N-(ε-aminocaproyl)/γ-PGA],0.00029,> 0.2,–,many more times greater
Poly[Neu5Ac α2-3lactosylamine β-N-(ε-aminocaproyl)/γ-PGA],0.0375,0.0375,–,–
Poly[N-(ε-aminocaproyl)-β-N-acetyllactosaminylamine/-γ-PGA]],> 0.2,> 0.2,–,–
